{
  "source": "patent US20260070895A1",
  "about": "“CRYSTALLINE FORMS” (QUIMATRYX, S.L., priority 2022, published 2026)",
  "format_in_all_cases": "physicochemical",
  "key": {"[1]": {"assay": "Photostability at solid state (chemical purity by HPLC after illumination)", "settings": "solid-state, unsealed clear glass bottles, forced illumination", "experimental": "(§1) The method for determining purity by HPLC—used throughout these examples—used the following parameters:\n(§2) The photostability of novel crystalline forms of QTX125 was assessed at solid state and in solution. Where ‘forced illumination’ conditions were used, samples were illuminated at 12 Klux/hour and 2.8 UV W/m^2/hour. Samples were stored at a temperature of 30° C. Following incubation, the chemical purity of QTX125 was measured by HPLC.\n(§3) The following index is provided to aid navigation of the data presented in Tables 3.1.1 to 3.3.6: • 3.1.x—Assessment of the photostability of QTX125 Form 2. • 3.2.x—Assessment of the photostability of amorphous QTX125. • 3.3.x—Assessment of the photostability of the QTX125 1:2 L-Lysine adduct. • 3.x.1—Samples (at solid state) stored in unsealed clear glass bottles, subject to forced illumination. • 3.x.2—Samples (at solid state) sealed under nitrogen in clear glass bottles, subject to forced illumination. • 3.x.3—Samples (at solid state) sealed under nitrogen in amber glass bottles, illuminated under ambient laboratory conditions • 3.x.4—Samples (at solid state) sealed under nitrogen in amber glass bottles, subject to forced illumination. • 3.x.5—Samples (in solution) sealed under nitrogen in amber glass bottles, illuminated under ambient laboratory conditions. • 3.x.6—Samples (in solution) sealed under nitrogen in amber glass bottles, subject to forced illumination."}, "[2]": {"assay": "Aqueous solubility at 37° C. (HPLC of filtered suspension)", "settings": "37° C.", "experimental": "The solubility of novel crystalline forms of QTX125 was assessed in the following aqueous solutions: (i) phosphate buffer, pH 3.5, 0.9% w/v sodium chloride; (ii) phosphate buffer, pH 6.5, 0.9% w/v sodium chloride; (iii) acetate buffer, pH 4.5, 0.9% w/v sodium chloride; (iv) citro-phosphate buffer, pH 4.5, 0.9% w/v sodium chloride; (v) sodium chloride, 0.9% w/v and (vi) deionised water. All assays were completed at 37° C.\nIn brief, 30 mg QTX125 was dispensed into vessels followed by 5 mL of the appropriate aqueous buffer. Mixtures were suspended by agitation and heated to 37° C. At various fixed intervals, an 0.4 mL aliquot of the suspension was removed, filtered and diluted for examination by HPLC. A single HPLC reference sample was used."}, "[3]": {"assay": "Photostability in solution (THF and water), HPLC", "settings": "in solution (THF and water), sealed under nitrogen in amber glass bottles; for degradation (in words): up to 171 hours", "experimental": "as §1, §2, §3"}, "[4]": {"settings": "0.9% w/v sodium chloride solution, saline or isotonic, thermodynamic from solid, buffer (v) sodium chloride, 0.9% w/v, read-out: concentration of QTX125 (solubility)"}, "[5]": {"settings": "acetate buffer with 0.9% w/v sodium chloride, aqueous buffer, thermodynamic from solid, buffer (iii) acetate buffer, pH 4.5, 0.9% w/v sodium chloride, read-out: concentration of QTX125 (solubility)"}, "[6]": {"settings": "citro-phosphate buffer with 0.9% w/v sodium chloride, aqueous buffer, thermodynamic from solid, buffer (iv) citro-phosphate buffer, pH 4.5, 0.9% w/v sodium chloride, read-out: concentration of QTX125 (solubility)"}, "[7]": {"settings": "phosphate buffer with 0.9% w/v sodium chloride, aqueous buffer, thermodynamic from solid, buffer (i) phosphate buffer, pH 3.5, 0.9% w/v sodium chloride, read-out: concentration of QTX125 (solubility)"}, "[8]": {"settings": "phosphate buffer with 0.9% w/v sodium chloride, aqueous buffer, thermodynamic from solid, buffer (ii) phosphate buffer, pH 6.5, 0.9% w/v sodium chloride, read-out: concentration of QTX125 (solubility)"}, "[9]": {"settings": "thermodynamic from solid, buffer (vi) deionised water, read-out: concentration of QTX125 (solubility)"}, "[10]": {"settings": "ambient laboratory conditions, 0 hours"}, "[11]": {"settings": "ambient laboratory conditions, 3 hours"}, "[12]": {"settings": "ambient laboratory conditions, 26 hours"}, "[13]": {"settings": "ambient laboratory conditions, 171 hours"}, "[14]": {"settings": "ambient laboratory conditions, 171 hours, listed as Form 2"}, "[15]": {"settings": "forced illumination, 171 hours, listed as Form 2"}},
  "note": "Read-outs that look alike come from different tables or passages of the source.",
  "data": [
    {"smiles": "O=C(NO)c1ccc(CNC(=O)c2[nH]c(-c3ccc(O)cc3)cc2-c2ccoc2)cc1", "note": "[QTX125 Form 2, 3-(3-Furyl)-N-{4-[(hydroxyamino)carbonyl]benzyl}-5-(4-hydroxyphenyl)-1H-pyrrole-2-carboxamide]", "values": [
      {"measurement": "HPLC peak area, RRT 1.04", "setting": "[1]; 171 hours", "result": 9.15, "unit": "%"},
      {"measurement": "HPLC peak area, RRT 1.12", "setting": "[1]; 171 hours", "result": 0.52, "unit": "%"},
      {"measurement": "degradation (in words)", "setting": "[1]; up to 171 hours", "result": "degrade to two principal components"},
      {"measurement": "solubility at 1 h", "setting": "[2]; [4]", "result": 0.68, "unit": "µg/mL"},
      {"measurement": "solubility at 4 h", "setting": "[2]; [4]", "result": 0.26, "unit": "µg/mL"},
      {"measurement": "solubility at 7 h", "setting": "[2]; 0.9% w/v sodium chloride solution, saline or isotonic, thermodynamic from solid, buffer (v) sodium chloride, 0.9% w/v, 7 hours, read-out: concentration of QTX125 (solubility)", "result": 0.22, "unit": "µg/mL"},
      {"measurement": "solubility at 24 h", "setting": "[2]; [4]", "result": 0.81, "unit": "µg/mL"},
      {"measurement": "solubility at 1 h", "setting": "[2]; [5]", "result": 0.25, "unit": "µg/mL"},
      {"measurement": "solubility at 4 h", "setting": "[2]; [5]", "result": 0.29, "unit": "µg/mL"},
      {"measurement": "solubility at 7 h", "setting": "[2]; acetate buffer with 0.9% w/v sodium chloride, aqueous buffer, thermodynamic from solid, buffer (iii) acetate buffer, pH 4.5, 0.9% w/v sodium chloride, 7 hours, read-out: concentration of QTX125 (solubility)", "result": 0.19, "unit": "µg/mL"},
      {"measurement": "solubility at 24 h", "setting": "[2]; [5]", "result": 0.5, "unit": "µg/mL"},
      {"measurement": "solubility", "setting": "[2]; aqueous buffers (i) to (v), aqueous buffer, thermodynamic from solid, buffers (i) to (v), 1 to 24 hours, read-out: concentration values range (solubility)", "result": "0.15 to 1.76", "unit": "µg/mL"},
      {"measurement": "concentration of QTX125 (solubility)", "setting": "[2]; buffer (vi) deionised water, 7 hours", "result": 27.82, "unit": "µg/mL"},
      {"measurement": "solubility (in words)", "setting": "[2]; buffers (i) to (v)", "result": "very low"},
      {"measurement": "solubility at 1 h", "setting": "[2]; [6]", "result": 0.32, "unit": "µg/mL"},
      {"measurement": "solubility at 4 h", "setting": "[2]; [6]", "result": 0.17, "unit": "µg/mL"},
      {"measurement": "solubility at 7 h", "setting": "[2]; citro-phosphate buffer with 0.9% w/v sodium chloride, aqueous buffer, thermodynamic from solid, buffer (iv) citro-phosphate buffer, pH 4.5, 0.9% w/v sodium chloride, 7 hours, read-out: concentration of QTX125 (solubility)", "result": 0.17, "unit": "µg/mL"},
      {"measurement": "solubility at 24 h", "setting": "[2]; [6]", "result": 0.4, "unit": "µg/mL"},
      {"measurement": "PXRD analysis of the solid recovered at 24 hours", "setting": "[2]; deionised water (vi)", "result": "confirmed the entity as Form 2"},
      {"measurement": "solubility at 1 h", "setting": "[2]; [7]", "result": 0.77, "unit": "µg/mL"},
      {"measurement": "solubility at 4 h", "setting": "[2]; [7]", "result": 0.15, "unit": "µg/mL"},
      {"measurement": "solubility at 7 h", "setting": "[2]; phosphate buffer with 0.9% w/v sodium chloride, aqueous buffer, thermodynamic from solid, buffer (i) phosphate buffer, pH 3.5, 0.9% w/v sodium chloride, 7 hours, read-out: concentration of QTX125 (solubility)", "result": 0.5, "unit": "µg/mL"},
      {"measurement": "solubility at 24 h", "setting": "[2]; [7]", "result": 1.76, "unit": "µg/mL"},
      {"measurement": "solubility at 1 h", "setting": "[2]; [8]", "result": 0.33, "unit": "µg/mL"},
      {"measurement": "solubility at 4 h", "setting": "[2]; [8]", "result": 0.15, "unit": "µg/mL"},
      {"measurement": "solubility at 7 h", "setting": "[2]; phosphate buffer with 0.9% w/v sodium chloride, aqueous buffer, thermodynamic from solid, buffer (ii) phosphate buffer, pH 6.5, 0.9% w/v sodium chloride, 7 hours, read-out: concentration of QTX125 (solubility)", "result": 0.34, "unit": "µg/mL"},
      {"measurement": "solubility at 24 h", "setting": "[2]; [8]", "result": 0.63, "unit": "µg/mL"},
      {"measurement": "solubility at 1 h", "setting": "[2]; [9]", "result": 17.8, "unit": "µg/mL"},
      {"measurement": "solubility at 4 h", "setting": "[2]; [9]", "result": 22.4, "unit": "µg/mL"},
      {"measurement": "solubility at 24 h", "setting": "[2]; [9]", "result": 16.6, "unit": "µg/mL"},
      {"measurement": "solubility at 7 h", "setting": "[2]; thermodynamic from solid, deionised water (buffer vi), following 7 hours of incubation, read-out: peak solubility", "result": 27.8, "unit": "µg/mL"},
      {"measurement": "HPLC peak area, QTX125 RRT 1.00", "setting": "[3]; [10]", "result": 98.21, "unit": "%"},
      {"measurement": "HPLC peak area, RRT 1.04", "setting": "[3]; [10]", "result": 0.98, "unit": "%"},
      {"measurement": "HPLC peak area, QTX125 RRT 1.00", "setting": "[3]; [11]", "result": 97.50, "unit": "%"},
      {"measurement": "HPLC peak area, RRT 1.04", "setting": "[3]; [11]", "result": 1.06, "unit": "%"},
      {"measurement": "HPLC peak area, QTX125 RRT 1.00", "setting": "[3]; [12]", "result": 97.65, "unit": "%"},
      {"measurement": "HPLC peak area, RRT 1.04", "setting": "[3]; [12]", "result": 0.93, "unit": "%"},
      {"measurement": "HPLC peak area, QTX125 RRT 1.00", "setting": "[3]; [13]", "result": 91.10, "unit": "%"},
      {"measurement": "HPLC peak area, RRT 1.04", "setting": "[3]; [13]", "result": 4.81, "unit": "%"},
      {"measurement": "HPLC peak area, RRT 1.12", "setting": "[3]; [13]", "result": 0.83, "unit": "%"},
      {"measurement": "HPLC peak area, QTX125 RRT 1.00", "setting": "[3]; [14]", "result": 91.10, "unit": "%"},
      {"measurement": "HPLC peak area, RRT 1.04", "setting": "[3]; [14]", "result": 4.81, "unit": "%"},
      {"measurement": "HPLC peak area, RRT 1.12", "setting": "[3]; [14]", "result": 0.83, "unit": "%"},
      {"measurement": "degradation (in words)", "setting": "[3]; ambient laboratory conditions", "result": "degrade"},
      {"measurement": "HPLC peak area, QTX125 RRT 1.00", "setting": "[3]; forced illumination, 0 hours", "result": 98.21, "unit": "%"},
      {"measurement": "HPLC peak area, RRT 1.04", "setting": "[3]; forced illumination, 0 hours", "result": 0.98, "unit": "%"},
      {"measurement": "HPLC peak area, QTX125 RRT 1.00", "setting": "[3]; forced illumination, 3 hours", "result": 97.30, "unit": "%"},
      {"measurement": "HPLC peak area, RRT 1.04", "setting": "[3]; forced illumination, 3 hours", "result": 1.07, "unit": "%"},
      {"measurement": "HPLC peak area, QTX125 RRT 1.00", "setting": "[3]; forced illumination, 26 hours", "result": 96.27, "unit": "%"},
      {"measurement": "HPLC peak area, RRT 1.04", "setting": "[3]; forced illumination, 26 hours", "result": 1.09, "unit": "%"},
      {"measurement": "HPLC peak area, QTX125 RRT 1.00", "setting": "[3]; forced illumination, 171 hours", "result": 81.65, "unit": "%"},
      {"measurement": "HPLC peak area, RRT 1.04", "setting": "[3]; forced illumination, 171 hours", "result": 3.60, "unit": "%"},
      {"measurement": "HPLC peak area, RRT 1.12", "setting": "[3]; forced illumination, 171 hours", "result": 0.86, "unit": "%"},
      {"measurement": "HPLC peak area, QTX125 RRT 1.00", "setting": "[3]; [15]", "result": 81.65, "unit": "%"},
      {"measurement": "HPLC peak area, RRT 1.04", "setting": "[3]; [15]", "result": 3.60, "unit": "%"},
      {"measurement": "HPLC peak area, RRT 1.12", "setting": "[3]; [15]", "result": 0.86, "unit": "%"},
      {"measurement": "degradation (in words)", "setting": "[3]; forced illumination", "result": "degrade"}
    ]}
  ]
}
